The source of these data is EPA's ToxValDB 9.5.

Converted amounts (≈) assume the structure as drawn.

One data set has as its system Bibionidae. The conditions noted are these: chronic/long-term.
The test system of the next data set is Canidae. The conditions noted are these: Dog Other; for NOAEL: chronic.
A further data set has as its system Daphnia magna. The conditions noted are these: chronic/long-term; duration: 21 days; reproduction.
The next data set has as its system Colinus virginianus. As to conditions: for LD50: acute, oral, mortality.
Another data set has as its system Oncorhynchus mykiss. As to conditions: for NOEC: chronic/long-term.
For another data set, the system named is Typhlodromus pyri. As to the kind of experiment: LR50; higher = less toxic. As to conditions: not reported; mortality.
Another data set has as its system Anas platyrhynchos. As to conditions: for LC50: short-term, oral, feed, mortality.
In a further data set the test system is Mus musculus. The conditions noted are these: acute; oral; F; mortality.
For another data set, the system named is Coturnix coturnix. As to conditions: acute; oral; mortality.
A further data set has as its system Bird. The conditions noted are these: acute; oral; unspecified; mortality.
A further data set relates to Oryctolagus sp. The conditions noted are these: reproduction developmental; hematological.
A further data set concerns Sus scrofa. As to conditions: acute; oral; Not specified; mortality.
The next data set concerns Coturnix japonica. As to conditions: reproduction developmental.
A further data set has as its system Apis mellifera. The conditions noted are these: acute, duration: 48 hours, mortality.
A further data set relates to Gasterosteus aculeatus. The conditions noted are these: acute; duration: 96 hours; mortality.
The next data set deals with Aphidius rhopalosiphi. As to the kind of experiment: LR50; higher = less toxic. The conditions noted are these: acute; duration: 48 hours; mortality.
The next data set has as its system Lepomis macrochirus. As to conditions: acute; duration: 96 hours; mortality.

As for `Nc1c(Cl)cc([N+](=O)[O-])cc1Cl` [1-Amino-2,6-dichloro-4-nitrobenzene], the NOEC was 0.6 mg/L in the data set on Bibionidae; 0.032 mg/L with Daphnia magna; 35.2 mg/kg-day in the data set with Colinus virginianus (reproduction developmental); 0.05 mg/L in the data set with Oncorhynchus mykiss (duration: 28 days, growth); 77.8 mg/kg in the data set with Tagia sp. (chronic/long-term, duration: 56 days). In addition, the no-observed-adverse-effect level (NOAEL) with Canidae (duration: 1 years, oral, hematological) turned out to be 2.5 mg/kg-day. For the same compound, the NOEL with Rattus norvegicus (reproduction developmental, body weight) was determined as 19 mg/kg-day. Also, the LR50 with Typhlodromus pyri was 374 g/ha.
For the compound `CCOP(=S)(OCC)Oc1nc(Cl)c(Cl)cc1Cl` [Chlorpyrifos], the no observed adverse effect level (NOAEL) in the data set on Canidae (duration: 2 years, clinical chemistry) turned out to be 0.1 mg/kg-day; with Rattus norvegicus (acute, clinical chemistry) it was 0.5 mg/kg-day; in the data set with Rattus norvegicus (chronic, duration: 2 years, clinical chemistry), 0.1 mg/kg-day; in the data set with Rattus norvegicus (reproduction developmental), 1 mg/kg-day; in the data set with Rattus norvegicus (reproduction developmental, clinical chemistry) it was 0.1 mg/kg-day. The NOEC in the data set with Anas platyrhynchos (reproductive, reproduction) turned out to be 2.88 mg/kg-day. The LC50 in the data set on Anas platyrhynchos was 71 mg/kg-day. The LD50 with Colinus virginianus (duration: 1 hours) was 75 mg/kg; in the data set with Mus musculus it was 64 mg/kg; in the data set on Coturnix coturnix it was 13.3 mg/kg; with Bird, 122 mg/kg.
As to `O=c1oc2ccccc2c(O)c1C1CC(c2ccc(-c3ccccc3)cc2)Cc2ccccc21` (stereo not given) [Difenacoum], the LD50 in the data set on Canidae (acute, oral, mortality) was 50 mg/kg-day; in the data set with Colinus virginianus it was 56 mg/kg-day; with Sus scrofa, 80 mg/kg-day; in the data set with Rattus norvegicus (acute, oral, mortality), 1.8 mg/kg-day. Moreover, the LC50 with Anas platyrhynchos amounted to 3.5 mg/kg-day; with Oncorhynchus mykiss (acute, duration: 96 hours, mortality), 0.064 µg/mL (≈ 0.144 µM). The NOAEL in the data set on Oryctolagus sp. came to 0.005 mg/kg-day. In addition, the NOEC in the data set with Coturnix japonica is over 0.01 mg/kg-day.
Take `CCOC(=O)CC(SP(=S)(OC)OC)C(=O)OCC` (stereo not given) [Malathion]: the LD50 in the data set on Apis mellifera (dermal) worked out at 0.16 µg/piece. Moreover, the NOEC in the data set with Daphnia magna came out at 6e-05 mg/L; with Oncorhynchus mykiss (duration: 97 days, morphology) it was 0.021 mg/L. The LC50 with Tagia sp. (acute, duration: 14 days, mortality) was found to be 613 mg/kg; in the data set on Gasterosteus aculeatus, 0.022 µg/mL (≈ 0.0666 µM). The NOAEL with Rattus norvegicus (chronic, duration: 2 years, neurology) amounted to 29 mg/kg-day; in the data set with Rattus norvegicus (subchronic, duration: 90 days, neurology), 34 mg/kg-day. Also, in the data set on Aphidius rhopalosiphi, the LR50 was determined as 0.0612 g/ha.
With `CC(COc1ccc(Oc2ccccc2)cc1)Oc1ccccn1` (stereo not given) [Pyriproxyfen], the NOEC in the data set with Bibionidae (duration: 28 days, other) stood at 0.01 mg/L; in the data set with Daphnia magna it was 1.5e-05 mg/L; in the data set with Oncorhynchus mykiss (duration: 95 days) it was 0.0043 mg/L. In the data set on Apis mellifera (oral, unspecified), this compound registered an LD50 of 74 µg/piece. This compound also gave an LC50 in the data set on Lepomis macrochirus of over 0.27 µg/mL.
